From patent publication US9403785B2, “Process for preparing amorphous cabazitaxel” (SHILPA MEDICARE LIMITED, priority 2012, dated 2016)

Assays:
[1] = Storage stability of solid form (morphology and physicochemical characteristics); settings: solid material obtained after solvent recovery
Excerpt: The merit of the process according to the present invention resides in that—product obtained after recovery is obtained in non-solvated amorphous form of Cabazitaxel. Said material was found devoid of any crystal lattice and adequately stable to handle and store for longer time (at least up to more than 6 months) without any significant or measurable change in its morphology and physicochemical characteristics.

[2] = cited from earlier work
[3] = compared with acetone solvate form (Form A); cited from earlier work

CO[C@H]1C(=O)[C@@]2(C)C([C@H](OC(=O)c3ccccc3)[C@]3(O)C[C@H](OC(=O)[C@H](O)[C@H](NC(=O)OC(C)(C)C)c4ccccc4)C(C)=C1C3(C)C)[C@]1(OC(C)=O)CO[C@@H]1C[C@@H]2OC (stereo in doubt) [(2α,5β,7β,10β,13α)-4-acetoxy-13-({(2R,3S)-3[(tert-butoxy-carbonyl)amino]-2-hydroxy-3-phenylpropanoyl}oxy)-1-hydroxy-7,10-dimethoxy-9-oxo-5,20-epoxytax-11-en-2-yl benzoate]
time handled and stored without any significant or measurable change in morphology and physicochemical characteristics [1]: more than 6 months

CO[C@H]1C(=O)[C@@]2(C)C([C@H](OC(=O)c3ccccc3)[C@]3(O)C[C@H](OC(=O)[C@H](O)[C@H](NC(=O)OC(C)(C)C)c4ccccc4)C(C)=C1C3(C)C)[C@]1(OC(C)=O)CO[C@@H]1C[C@@H]2OC (stereo partly drawn) [Cabazitaxel, (2α,5β,7β,10β,13α)-4-acetoxy-13-({(2R,3S)-3[(tert-butoxycarbonyl)amino]-2-hydroxy-3-phenylpropanoyl}oxy)-1-hydroxy-7,10-dimethoxy-9-oxo-5,20-epoxytax-11-en-2-yl benzoate]
solubility in water [2]: practically insoluble in water

CO[C@H]1C(=O)[C@]2(C)[C@@H](OC)C[C@H]3OC[C@@]3(OC(C)=O)[C@H]2[C@H](OC(=O)c2ccccc2)[C@]2(O)C[C@H](OC(=O)[C@H](O)[C@@H](NC(=O)OC(C)(C)C)c3ccccc3)C(C)=C1C2(C)C [Form D anhydrous, 4-acetoxy-2α-benzoyloxy-5β,20-epoxy-1-hydroxy-7β,10β-dimethoxy-9-oxotax-11-en-13α-yl (2R,3S)-3-tert-butoxycarbonylamino-2-hydroxy-3-phenyl-propionate]
stability of solid form [3]: highly stable, even more stable than acetone solvate form (Form A)
